Here are results for 20 compounds from patent US10662204B2 (PFIZER INC., priority 2018, dated 2020).

One assay addresses KRAS G12C (Homo sapiens, UniProt P01116, G12C). Nature of the assay: Cell Activity Assay: accumulation of GDP-bound KRAS G12C in MIAPaCa-2 cells (Raf-1 RBD capture, MSD readout). Details: endogenous in cells; host or cells: MIAPaCa-2. Conditions: 6 hours, assay limit is 30.00. It is filed as cell-based. In a few lines: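 MIAPaCa-2 cells exposed 6 h at 37 °C to 3-fold compound dilutions (0.3% DMSO final), then lysed. Active GTP-KRAS captured on Raf-1 RBD-coated plates, detected with anti-pan-Ras and SULFO-TAG secondary by MSD electrochemiluminescence. Signal normalized to DMSO and maximum inhibition; IC50 from 4-parameter fit.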

Assay [1] concerns the target T1, GDP-loaded KRAS (1-169) G12C, C51S, C80L, C118S (Homo sapiens, UniProt P01116, C118S/C51S/C80L/G12C).
T1 construct: GDP-loaded KRAS (1-169) G12C, C51S, C80L, C118S
Nature of the assay: Mass Spectrometry Reactivity Assay (MSRA): covalent adduct of compound and KRAS G12C, Percent Modification. Conditions: for MSRA (% modification) 5.0 μM 0.25 hr: 5.0 μM compound; for MSRA (% modification) 10 μM 0.25 hr / MSRA (% modification) 10 μM 0.50 hr: 10 μM compound. It is filed as binding. The method, boiled down: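 GDP-loaded KRAS(1-169) G12C/C51S/C80L/C118S at 5 μM in 25 mM Hepes pH 7.5, 200 mM NaCl, 5% glycerol incubated at RT with compound (typically 5 or 10 μM final, 1% DMSO). Quenched in formic acid at 1-60 min; intact-protein LC-TOF MS gives % modification = modified/(modified+unmodified).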

For the compound `C=CC(=O)N1CCN(c2nc(OC[C@]3(F)CCN(C)C3)nc3c(Oc4c(Cl)c(F)cc5[nH]ncc45)nccc23)CC1` [Example 14H, 1-[4-(8-[(5-chloro-6-fluoro-1H-indazol-4-yl)oxy]-2-{[(3S)-3-fluoro-1-methylpyrrolidin-3-yl]methoxy}pyrido[3,4-d]pyrimidin-4-yl)piperazin-1-yl]prop-2-en-1-one], at KRAS G12C, it took 0.082 µM to reach half-maximal inhibition (IC50). In addition, in assay [1], the “MSRA (% modification) 5.0 μM 0.25 hr” value is reported as 52% and the “MSRA (% modification) 10 μM 0.25 hr” value was determined as 81%.
As for `C=CC(=O)N1CCN(c2nc(Oc3cccnc3C)nc3c(Oc4c(Cl)c(F)cc5[nH]ncc45)nccc23)CC1` [Example 14I, 1-(4-{8-[(5-chloro-6-fluoro-1H-indazol-4-yl)oxy]-2-[(2-methyl-pyridin-3-yl)oxy]pyrido [3,4-d]pyrimidin-4-yl}piperazin-1-yl)prop-2-en-1-one], the IC50 (as a rule, the concentration that gives 50% inhibition) at KRAS G12C worked out at 0.366 µM. Besides, in assay [1], the “MSRA (% modification) 5.0 μM 0.25 hr” value worked out at 14%.
With `C=CC(=O)N1CCN(c2ncnc3c(Oc4c(Cl)c(C)cc5[nH]ncc45)nc(Cl)cc23)CC1` [Example 15A, 1-(4-{6-chloro-8-[(5-chloro-6-methyl-1H-indazol-4-yl)oxy]pyrido[3,4-d]pyrimidin-4-yl}piperazin-1-yl)prop-2-en-1-one], the IC50 at KRAS G12C was 0.468 µM. Besides, the “MSRA (% modification) 10 μM 0.50 hr” value in assay [1] stood at 67%.
Take `C=CC(=O)N1CCN(c2nc(OCCN(C)C)nc3c(Oc4c(Cl)c(C)cc5[nH]ncc45)cccc23)CC1` [Example 15E, 1-(4-{8-[(5-chloro-6-methyl-1H-indazol-4-yl)oxy]-2-[2-(dimethylamino)ethoxy]quinazolin-4-yl}piperazin-1-yl)prop-2-en-1-one]: the IC50 on KRAS G12C was determined as 0.51 µM. Also, in assay [1], the “MSRA (% modification) 5.0 μM 0.25 hr” value was 56%, the “MSRA (% modification) 10 μM 0.25 hr” value was determined as 59% and the “MSRA (% modification) 10 μM 0.50 hr” value turned out to be 74%.
On KRAS G12C, `C=CC(=O)N1CCN(c2nc(NC3CNC(=O)C3)nc3c(Oc4c(C)ccc5[nH]ncc45)cccc23)CC1` (centres unmarked) [Example 15F, 4-({4-(4-acryloylpiperazin-1-yl)-8-[(5-methyl-1H-indazol-4-yl)oxy]quinazolin-2-yl}amino)pyrrolidin-2-one] showed a concentration for half-maximal inhibition (IC50) greater than 30 µM. In addition, the “MSRA (% modification) 10 μM 0.50 hr” value in assay [1] is listed as 13%.
In turn, `C=CC(=O)N1CCN(c2nc(OCC3(F)CCN(C)CC3)nc3c(Oc4c(Cl)c(F)cc5[nH]ncc45)nc(Cl)cc23)CC1` [Example 15G, 1-(4-{6-chloro-8-[(5-chloro-6-fluoro-1H-indazol-4-yl)oxy]-2-[(4-fluoro-1-methylpiperidin-4-yl)methoxy]pyrido[3,4-d]pyrimidin-4-yl}piperazin-1-yl)prop-2-en-1-one] registered an IC50 on KRAS G12C of 0.019 µM. Moreover, the “MSRA (% modification) 5.0 μM 0.25 hr” value in assay [1] amounted to 80%.
On KRAS G12C, `C=CC(=O)N1CCN(c2nc(OC[C@@]3(F)CCN(C)C3)nc3c(Oc4c(Cl)c(F)cc5[nH]ncc45)nccc23)CC1` [Example 15H, 1-[4-(8-[(5-chloro-6-fluoro-1H-indazol-4-yl)oxy]-2-{[(3R)-3-fluoro-1-methylpyrrolidin-3-yl]methoxy}pyrido[3,4-d]pyrimidin-4-yl)piperazin-1-yl]prop-2-en-1-one] yielded an IC50 of 0.461 µM. For the same compound, in assay [1], the “MSRA (% modification) 5.0 μM 0.25 hr” value is on record as 25% and the “MSRA (% modification) 10 μM 0.25 hr” value turned out to be 54%.
As for `C=CC(=O)N1CCN(c2nc(OC[C@@]3(F)CCCN(C)C3)nc3c(Oc4c(Cl)c(F)cc5[nH]ncc45)nccc23)CC1` [Example 15I, 1-[4-(8-[(5-chloro-6-fluoro-1H-indazol-4-yl)oxy]-2-{[(3R)-3-fluoro-1-methyl-piperidin-3-yl]methoxy}pyrido [3,4-d]pyrimidin-4-yl)piperazin-1-yl]prop-2-en-1-one], the IC50 on KRAS G12C is 0.126 µM. The “MSRA (% modification) 5.0 μM 0.25 hr” value in assay [1] is 81%.
For `C=CC(=O)N1CCN(c2ncnc3c(Oc4c(F)c(C)c(F)c5[nH]ncc45)nccc23)CC1` [Example 16A, 1-(4-{8-[(5,7-difluoro-6-methyl-1H-indazol-4-yl)oxy]pyrido[3,4-d]pyrimidin-4-yl}piperazin-1-yl)prop-2-en-1-one], the concentration for half-maximal inhibition (IC50) against KRAS G12C came out at 29.6 µM. Also, the “MSRA (% modification) 10 μM 0.50 hr” value in assay [1] was determined as 7%.
For `C=CC(=O)N1CCN(c2ncnc3c(Oc4c(C)ccc5[nH]nc(Cl)c45)nccc23)CC1` [Example 16C, 1-(4-{8-[(3-chloro-5-methyl-1H-indazol-4-yl)oxy]pyrido[3,4-d]pyrimidin-4-yl}piperazin-1-yl)prop-2-en-1-one], in that order: 22.2 µM and 7%.
The compound `C=CC(=O)N1CCN(c2nc(OC[C@@H]3CCCN3C)nc3c(Oc4c(Cl)c(F)cc5[nH]ncc45)cccc23)CC1` [Example 16E, 1-[4-(8-[(5-chloro-6-fluoro-1H-indazol-4-yl)oxy]-2-{[(2S)-1-methylpyrrolidin-2-yl]methoxy}quinazolin-4-yl)piperazin-1-yl]prop-2-en-1-one] displayed an IC50 at KRAS G12C of 0.413 µM. The “MSRA (% modification) 10 μM 0.25 hr” value in assay [1] is given as 11%.
In turn, `C=CC(=O)N1CCN(c2nc(NCCc3nncn3C)nc3c(Oc4c(C)ccc5[nH]ncc45)cccc23)CC1` [Example 16F, 1-[4-(8-[(5-methyl-1H-indazol-4-yl)oxy]-2-{[2-(4-methyl-4H-1,2,4-triazol-3-yl)ethyl]amino}quinazolin-4-yl)piperazin-1-yl]prop-2-en-1-one] had an IC50 against KRAS G12C greater than 30 µM. In addition, the “MSRA (% modification) 10 μM 0.50 hr” value in assay [1] came to 16%.
In turn, `C=CC(=O)N1CCN(c2nc(OC[C@@H]3C[C@@H](F)CN3C)nc3c(Oc4c(Cl)c(F)cc5[nH]ncc45)nc(Cl)cc23)CC1` [Example 16G, 1-[4-(6-chloro-8-[(5-chloro-6-fluoro-1H-indazol-4-yl)oxy]-2-{[(2S,4R)-4-fluoro-1-methylpyrrolidin-2-yl]methoxy}pyrido[3,4-d]pyrimidin-4-yl)piperazin-1-yl]prop-2-en-1-one] displayed an IC50 against KRAS G12C of 0.111 µM. Moreover, the “MSRA (% modification) 10 μM 0.25 hr” value in assay [1] is 14%.
As to `C=CC(=O)N1CCN(c2nc(OC[C@@H]3C[C@@H](F)CN3C)nc3c(Oc4c(Cl)c(F)cc5[nH]ncc45)nccc23)CC1` [Example 16H, 1-[4-(8-[(5-chloro-6-fluoro-1H-indazol-4-yl)oxy]-2-{[(2S,4R)-4-fluoro-1-methylpyrrolidin-2-yl]methoxy}pyrido[3,4-d]pyrimidin-4-yl)piperazin-1-yl]prop-2-en-1-one], half-maximal inhibition on KRAS G12C (IC50) required 0.169 µM. The “MSRA (% modification) 5.0 μM 0.25 hr” value in assay [1] worked out at 57%.
As to `C=CC(=O)N1CCN(c2nc(OC3CCN(C)CC3)nc3c(Oc4c(Cl)c(F)cc5[nH]ncc45)nccc23)CC1` [Example 16I, 1-(4-{8-[(5-chloro-6-fluoro-1H-indazol-4-yl)oxy]-2-[(1-methyl-piperidin-4-yl)oxy]pyrido [3,4-d]pyrimidin-4-yl}piperazin-1-yl)prop-2-en-1-one], half-maximal inhibition against KRAS G12C (IC50) was put at 0.582 µM. The “MSRA (% modification) 5.0 μM 0.25 hr” value in assay [1] is on record as 48%.
`C=CC(=O)N1CCN(c2ncnc3c(Oc4c(C)ccc5[nH]nc(C)c45)nccc23)CC1` [Example 17A, 1-(4-{8-[(3,5-dimethyl-1H-indazol-4-yl)oxy]pyrido[3,4-d]pyrimidin-4-yl}piperazin-1-yl)prop-2-en-1-one] showed a concentration for half-maximal inhibition (IC50) against KRAS G12C of 24.1 µM. In assay [1], the “MSRA (% modification) 10 μM 0.50 hr” value stood at 9%.
On the same counts, the results for `C=CC(=O)N1CCN(c2ncnc3c(Oc4c(Cl)c(F)cc5[nH]ncc45)cccc23)C[C@H]1C` [Example 17C, 1-[(2R)-4-{8-[(5-chloro-6-fluoro-1H-indazol-4-yl)oxy]quinazolin-4-yl}-2-methylpiperazin-1-yl]prop-2-en-1-one] are 2.6 µM and 24%.
At KRAS G12C, `C=CC(=O)N1CCN(c2nc(OC[C@H]3CCCN3C)nc3c(Oc4c(Cl)c(F)cc5[nH]ncc45)nccc23)CC1` [Example 17E, 1-[4-(8-[(5-chloro-6-fluoro-1H-indazol-4-yl)oxy]-2-{[(2R)-1-methylpyrrolidin-2-yl]methoxy}pyrido[3,4-d]pyrimidin-4-yl)piperazin-1-yl]prop-2-en-1-one] gave an IC50 of 0.197 µM. In assay [1], the “MSRA (% modification) 5.0 μM 0.25 hr” value worked out at 76%, the “MSRA (% modification) 10 μM 0.25 hr” value was found to be 80% and the “MSRA (% modification) 10 μM 0.50 hr” value stood at 83%.
At KRAS G12C, `C=CC(=O)N1CCN(c2nc(OCCNC(C)=O)nc3c(Oc4c(C)ccc5[nH]ncc45)cccc23)CC1` [Example 17F, N-[2-({4-(4-acryloylpiperazin-1-yl)-8-[(5-methyl-1H-indazol-4-yl)oxy]quinazolin-2-yl}oxy)ethyl]acetamide] came in with an IC50 of 4.59 µM. For the same compound, in assay [1], the “MSRA (% modification) 10 μM 0.25 hr” value is 36% and the “MSRA (% modification) 10 μM 0.50 hr” value stood at 60%.
Turning to `C=CC(=O)N1CCN(c2nc(OC[C@@H]3C[C@H](F)CN3C)nc3c(Oc4c(C)c(Cl)cc5[nH]ncc45)nc(Cl)cc23)CC1` [Example 17G, 1-[4-(6-chloro-8-[(6-chloro-5-methyl-1H-indazol-4-yl)oxy]-2-{[(2S,4S)-4-fluoro-1-methylpyrrolidin-2-yl]methoxy}pyrido[3,4-d]pyrimidin-4-yl)piperazin-1-yl]prop-2-en-1-one], the IC50 on KRAS G12C was determined as 0.054 µM. For the same compound, the “MSRA (% modification) 10 μM 0.25 hr” value in assay [1] was found to be 79%.
